Patent US20060111363A1, “Treatment of uveal melanoma” (priority 2002, published 2006)
“And” between values parts separate entries of the source, which are not always exact repeats. Identical values can stand only once. Like-named read-outs stand apart in the source and are kept apart here.

Legend:
[1] = test system: uveal melanoma cell lines (OCM-1, OCM-3, 92-1 and mel 202); experiment: Survival / cell death of the four uveal melanoma cell lines; format: cell-based, human
Excerpt: Cell culture: Four cell lines obtained from human primary uveal melanomas (OCM-1, OCM-3, 92-1 and mel 202) are used.

c-kit = c-kit (Homo sapiens, UniProt P10721); details: treatment of uveal melanoma cell lines
Sequence of c-kit (P10721 26-976): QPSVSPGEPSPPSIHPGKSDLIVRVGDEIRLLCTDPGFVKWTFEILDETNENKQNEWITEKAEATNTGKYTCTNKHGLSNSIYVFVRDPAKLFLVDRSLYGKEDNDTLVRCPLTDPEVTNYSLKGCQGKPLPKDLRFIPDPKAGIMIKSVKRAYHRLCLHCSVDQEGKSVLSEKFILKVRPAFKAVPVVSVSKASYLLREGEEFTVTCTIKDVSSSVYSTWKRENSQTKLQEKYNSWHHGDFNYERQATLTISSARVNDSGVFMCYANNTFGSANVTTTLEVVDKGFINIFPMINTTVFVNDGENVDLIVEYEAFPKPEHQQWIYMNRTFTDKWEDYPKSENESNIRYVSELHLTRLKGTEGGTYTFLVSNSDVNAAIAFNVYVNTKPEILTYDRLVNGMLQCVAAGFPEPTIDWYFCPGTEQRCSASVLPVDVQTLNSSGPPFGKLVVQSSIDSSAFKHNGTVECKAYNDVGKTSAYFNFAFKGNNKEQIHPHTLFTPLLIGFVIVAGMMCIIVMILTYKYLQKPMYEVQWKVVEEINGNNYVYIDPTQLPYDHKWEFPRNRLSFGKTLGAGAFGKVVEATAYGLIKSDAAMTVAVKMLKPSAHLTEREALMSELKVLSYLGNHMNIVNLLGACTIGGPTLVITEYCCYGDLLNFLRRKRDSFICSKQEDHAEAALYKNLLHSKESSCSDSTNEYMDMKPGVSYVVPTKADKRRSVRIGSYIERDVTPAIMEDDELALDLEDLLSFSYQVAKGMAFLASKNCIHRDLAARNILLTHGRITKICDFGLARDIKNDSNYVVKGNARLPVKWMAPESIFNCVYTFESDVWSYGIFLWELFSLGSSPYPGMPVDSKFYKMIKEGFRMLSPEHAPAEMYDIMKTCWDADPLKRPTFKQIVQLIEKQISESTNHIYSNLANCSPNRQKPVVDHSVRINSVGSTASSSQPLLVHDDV

UM 92-1 cells = details: runs 1 and 2
Excerpt: (§1) The test is based on a colorimetric change of the yellow tetrazolium slat XTT into orange formazan dye by the respiratory chain of viable cells (Roehm et al., 1991, J. Immunol. Assay, 142:257-265).

mel 202 cells = experiment: XTT cell viability, uveal melanoma cell line mel 202; details: for percentages of living cells as compared to 100% survival of untreated cells: runs 1 and 2
Excerpt: as §1

OCM-1 cells = experiment: XTT cell viability, uveal melanoma cell line OCM-1; details: for percentages of living cells as compared to 100% survival of untreated cells: runs 1 and 2
Excerpt: as §1

[2] = test system: DFB skin melanoma cell line; details: read-out: IC50 of Salt I on survival
Excerpt: (§2) Cell proliferation kit II is purchased from Roche Diagnostic GmbH (Mannheim, Germany). The test is based on a colorimetric change of the yellow tetrazolium slat XTT into orange formazan dye by the respiratory chain of viable cells (Roehm et al., 1991, J. Immunol. Assay, 142:257-265).

OCM-3 cells = experiment: XTT cell viability, uveal melanoma cell line OCM-3; details: for percentages of living cells as compared to 100% survival of untreated cells: runs 1 and 2
Excerpt: as §1

[3] = test system: BE skin melanoma cell line; details: read-out: IC50 of Salt I on survival
Excerpt: as §2

Cc1ccc(NC(=O)c2ccc(CN3CCN(C)CC3)cc2)cc1Nc1nccc(-c2cccnc2)n1 [Compound I]
cell death in vitro ([1]; four uveal melanoma cell lines): promotes in vitro cell death
effect on c-kit auto-phosphorylation (c-kit): blocks c-kit auto-phosphorylation

CS(=O)(=O)O.Cc1ccc(NC(=O)c2ccc(CN3CCN(C)CC3)cc2)cc1Nc1nccc(-c2cccnc2)n1 [Salt I]
cell loss ([1]; uveal melanoma cell lines, even at low concentrations of Salt I): drastic cell loss
percentages of living cells as compared to 100% survival of untreated cells (UM 92-1 cells; UM 92-1, 24 h, 0.3 μM Salt I): 98% and 91%
percentages of living cells as compared to 100% survival of untreated cells (UM 92-1 cells; UM 92-1, 24 h, 0.6 μM Salt I): 95%
percentages of living cells as compared to 100% survival of untreated cells (UM 92-1 cells; UM 92-1, 24 h, 5 μM Salt I): 83% and 75%
percentages of living cells as compared to 100% survival of untreated cells (UM 92-1 cells; UM 92-1, 24 h, 10 μM Salt I): 70% and 83%
percentages of living cells as compared to 100% survival of untreated cells (UM 92-1 cells; UM 92-1, 48 h, 0.3 μM Salt I): 85% and 90%
percentages of living cells as compared to 100% survival of untreated cells (UM 92-1 cells; UM 92-1, 48 h, 0.6 μM Salt I): 79% and 71%
percentages of living cells as compared to 100% survival of untreated cells (UM 92-1 cells; UM 92-1, 48 h, 5 μM Salt I): 15% and 22%
percentages of living cells as compared to 100% survival of untreated cells (UM 92-1 cells; UM 92-1, 48 h, 10 μM Salt I): 0% and 5%
percentages of living cells as compared to 100% survival of untreated cells (mel 202 cells; mel 202, 24 h, 0.3 μM Salt I): 98% and 105%
percentages of living cells as compared to 100% survival of untreated cells (mel 202 cells; mel 202, 24 h, 0.6 μM Salt I): 92% and 104%
percentages of living cells as compared to 100% survival of untreated cells (mel 202 cells; mel 202, 24 h, 5 μM Salt I): 97% and 101%
percentages of living cells as compared to 100% survival of untreated cells (mel 202 cells; mel 202, 24 h, 10 μM Salt I): 78% and 87%
percentages of living cells as compared to 100% survival of untreated cells (mel 202 cells; mel 202, 48 h, 0.3 μM Salt I): 23% and 14%
percentages of living cells as compared to 100% survival of untreated cells (mel 202 cells; mel 202, 48 h, 0.6 μM Salt I): 19% and 17%
percentages of living cells as compared to 100% survival of untreated cells (mel 202 cells; mel 202, 48 h, 5 μM Salt I): 23% and 15%
IC50 (mel 202 cells; read-out: IC50 of Salt I on survival, uveal melanoma cell line mel 202, Example 1: 48 hours exposure): 70 nM
percentages of living cells as compared to 100% survival of untreated cells (OCM-1 cells; OCM-1, 24 h, 0.3 μM Salt I): 95% and 97%
percentages of living cells as compared to 100% survival of untreated cells (OCM-1 cells; OCM-1, 24 h, 0.6 μM Salt I): 87% and 82%
percentages of living cells as compared to 100% survival of untreated cells (OCM-1 cells; OCM-1, 24 h, 5 μM Salt I): 63%
percentages of living cells as compared to 100% survival of untreated cells (OCM-1 cells; OCM-1, 24 h, 10 μM Salt I): 50% and 52%
percentages of living cells as compared to 100% survival of untreated cells (OCM-1 cells; OCM-1, 48 h, 0.3 μM Salt I): 62% and 59%
percentages of living cells as compared to 100% survival of untreated cells (OCM-1 cells; OCM-1, 48 h, 0.6 μM Salt I): 40% and 37%
percentages of living cells as compared to 100% survival of untreated cells (OCM-1 cells; OCM-1, 48 h, 5 μM Salt I): 27% and 23%
percentages of living cells as compared to 100% survival of untreated cells (OCM-1 cells; OCM-1, 48 h, 10 μM Salt I): 23% and 29%
IC50 (OCM-1 cells; read-out: IC50 of Salt I on survival, uveal melanoma cell line OCM-1, Example 1: 48 hours exposure): 400 nM
IC50 [2]: > 20000 nM
Salt I responsiveness (skin melanoma cell lines): no respondent
percentages of living cells as compared to 100% survival of untreated cells (OCM-3 cells; OCM-3, 24 h, 0.3 μM Salt I): 100% and 97%
percentages of living cells as compared to 100% survival of untreated cells (OCM-3 cells; OCM-3, 24 h, 0.6 μM Salt I): 100% and 105%
percentages of living cells as compared to 100% survival of untreated cells (OCM-3 cells; OCM-3, 24 h, 5 μM Salt I): 85% and 83%
percentages of living cells as compared to 100% survival of untreated cells (OCM-3 cells; OCM-3, 24 h, 10 μM Salt I): 87% and 98%
percentages of living cells as compared to 100% survival of untreated cells (OCM-3 cells; OCM-3, 48 h, 0.3 μM Salt I): 43% and 39%
percentages of living cells as compared to 100% survival of untreated cells (OCM-3 cells; OCM-3, 48 h, 0.6 μM Salt I): 34% and 27%
IC50 (OCM-3 cells; read-out: IC50 of Salt I on survival, uveal melanoma cell line OCM-3, Example 1: 48 hours exposure): 150 nM
IC50 [3]: > 20000 nM
